# Measurements taken from US9340535B2, “N-[5-(Aminosulfony1)-4-methyl-1,3-thiazol-2-yl]-N-methyl-2-[4-(2-pyridinyl)phenyl]acetamide mesylate monohydrate” (AiCuris GmbH & Co. KG, priority 2011, dated 2016).
# Like-named read-outs stand apart in the source and are kept apart here.
# How the values were obtained:
# [1] = Crystallinity by X-ray diffraction, microscopy; format: physicochemical; conditions: for Crystallinity: X-ray diffraction, microscopy
# [2] = Stability to dissociation: stirring for one week at room temperature
# [3] = Stability to decomposition: storage at 90° C. for one week
# [4] = Water solubility, solubility screening; conditions: for Water solubility: Solubility screening
# [5] = Thermal analysis and polymorphic stability (DSC, TGA); format: physicochemical; conditions: for DSC: Differential Scanning Calorimetry; for TGA: Thermogravimetric Analysis
# Procedure: Polymorphism refers to the ability of a solid material to exist in more than one crystal structure or solid form.
# Upon mild heating (about 50° C. to 60° C.), the water content is reduced which would make these salts and the free base form extremely difficult to handle and to process during production and formulation. In contrast the hydrate of the mono mesylate salt is thermally stable and polymorphic stable at much higher temperatures of considerably above 100° C. as judged by TGA.
# Moreover, exactly one mol equivalent water is incorporated into the crystal structure wherein the hydrogen atoms of the water molecule form hydrogen bridges with oxygen atoms of two different mesylate molecules. This well-defined position in the crystal lattice (see FIG. 3) is verified by the fact that water is released from the crystal only at high temperature, starting at 160° C.
# [6] = Exposure in repeated dose 13-week toxicity study (free base); conditions: rat, in vivo, rats; for AUC(0-t): read-out: AUC(0-24)
# Procedure: The exposure of rats to N-[5-(aminosulfonyl)-4-methyl-1,3-thiazol-2-yl]-N-methyl-2-[4-(2-pyridinyl)phenyl]acetamide in a repeated dose 13-week toxicity study performed with the free base N-[5-(aminosulfonyl)-4-methyl-1,3-thiazol-2-yl]-N-methyl-2-[4-(2-pyridinyl)phenyl]acetamide (free base) was compared to the exposures observed in a 26-week repeated dose toxicity study performed with the mesylate monohydrate. In both studies, the test items were administered as 0.5% (w/v) tylose suspensions, and the concentrations were adjusted to the equivalents of free base N-[5-(aminosulfonyl)-4-methyl-1,3-thiazol-2-yl]-N-methyl-2-[4-(2-pyridinyl)phenyl]acetamide.
# [7] = female, 10 mg/kg/day, F, 10 mg/kg/day, day 1, 13-week toxicity study
# [8] = female, 50 mg/kg/day, F, 50 mg/kg/day, day 1, 13-week toxicity study
# [9] = female, 250 mg/kg/day, F, 250 mg/kg/day, day 1, 13-week toxicity study
# [10] = male, 10 mg/kg/day, M, 10 mg/kg/day, day 1, 13-week toxicity study
# [11] = male, 50 mg/kg/day, M, 50 mg/kg/day, day 1, 13-week toxicity study
# [12] = male, 250 mg/kg/day, M, 250 mg/kg/day, day 1, 13-week toxicity study
smiles,measurement,setting,value
Cc1nc(N(C)C(=O)Cc2ccc(-c3ccccn3)cc2)sc1S(N)(=O)=O.Cl [1xHCl],Crystallinity of the hydrate during storage,[1]; during storage,decrease of crystallinity
same,Stability to dissociation,[2],++
same,Stability to decomposition,[3],++
same,Water solubility,[4],39.4 mg/100 mL
same,Thermal and polymorphic stability of hydrates (in words),[5],low thermal and low polymorphic stability
same,Thermal stability of hydrate,[5],labile
same,DSC,[5],loss of water before melting
same,TGA,[5],2.1%
Cc1ccc(S(=O)(=O)O)cc1.Cc1nc(N(C)C(=O)Cc2ccc(-c3ccccn3)cc2)sc1S(N)(=O)=O [1xTsOH],Crystallinity,[1],+
same,Stability to dissociation,[2],++
same,Stability to decomposition,[3],−
same,Water solubility,[4],50 mg/100 mL
same,Thermal stability of hydrate,[5],labile
same,DSC,[5],loss of water before melting
same,TGA,[5],5.9%
same,Thermal and polymorphic stability of hydrates (in words),[5]; listed as monotosylate,low thermal stability
same,Thermal and polymorphic stability of hydrates (in words),[5]; listed as tosylate,low thermal and low polymorphic stability
"Cc1nc(N(C)C(=O)Cc2ccc(-c3ccccn3)cc2)sc1S(N)(=O)=O [Free base, N-[5-(aminosulfonyl)-4-methyl-1,3-thiazol-2-yl]-N-methyl-2-[4-(2-pyridinyl)phenyl]acetamide]",Crystallinity,[1],+
same,Cmax,[6]; [7],15300 ng/mL
same,AUC(0-t),[6]; [7],159 µg·h/mL
same,AUC(0-t),"[6]; female, 10 mg/kg/day, F, 10 mg/kg/day, week 13, 13-week toxicity study",211 µg·h/mL
same,Cmax,"[6]; female, 10 mg/kg/day, F, week 13, 13-week toxicity study",25800 ng/mL
same,Cmax,[6]; [8],35300 ng/mL
same,AUC(0-t),[6]; [8],409 µg·h/mL
same,AUC(0-t),"[6]; female, 50 mg/kg/day, F, 50 mg/kg/day, week 13, 13-week toxicity study",455 µg·h/mL
same,Cmax,"[6]; female, 50 mg/kg/day, F, week 13, 13-week toxicity study",40500 ng/mL
same,Cmax,[6]; [9],68900 ng/mL
same,AUC(0-t),[6]; [9],966 µg·h/mL
same,AUC(0-t),"[6]; female, 250 mg/kg/day, F, 250 mg/kg/day, week 13, 13-week toxicity study",1170 µg·h/mL
same,Cmax,"[6]; female, 250 mg/kg/day, F, week 13, 13-week toxicity study",83000 ng/mL
same,Cmax,[6]; [10],13300 ng/mL
same,AUC(0-t),[6]; [10],87.9 µg·h/mL
same,AUC(0-t),"[6]; male, 10 mg/kg/day, M, 10 mg/kg/day, week 13, 13-week toxicity study",133 µg·h/mL
same,Cmax,"[6]; male, 10 mg/kg/day, M, week 13, 13-week toxicity study",15000 ng/mL
same,Cmax,[6]; [11],30600 ng/mL
same,AUC(0-t),[6]; [11],248 µg·h/mL
same,AUC(0-t),"[6]; male, 50 mg/kg/day, M, 50 mg/kg/day, week 13, 13-week toxicity study",332 µg·h/mL
same,Cmax,"[6]; male, 50 mg/kg/day, M, week 13, 13-week toxicity study",30000 ng/mL
same,Cmax,[6]; [12],53900 ng/mL
same,AUC(0-t),[6]; [12],567 µg·h/mL
same,AUC(0-t),"[6]; male, 250 mg/kg/day, M, 250 mg/kg/day, week 13, 13-week toxicity study",661 µg·h/mL
same,Cmax,"[6]; male, 250 mg/kg/day, M, week 13, 13-week toxicity study",62800 ng/mL
same,Stability to decomposition,[3],++
same,solubility,[4]; water,2 µg/mL
same,Thermal and polymorphic stability of hydrates (in words),[5],low thermal stability
same,Thermal stability of hydrate,[5],labile
same,DSC,[5],loss of water before melting
same,TGA,[5],8.8%
same,Thermal and polymorphic stability of hydrates (in words),[5]; listed as free base form,low thermal and low polymorphic stability
